How the values were obtained:
[1] = biological target: Atypical kinase COQ8A, mitochondrial (Homo sapiens) (UniProt Q8NI60); details: Compound concentration 1000.0 nM
[2] = biological target: Ankyrin repeat and protein kinase domain-containing protein 1 (Homo sapiens) (UniProt Q8NFD2); details: Compound concentration 1000.0 nM
[3] = biological target: Tyrosine-protein kinase Blk (Homo sapiens) (UniProt P51451); details: Compound concentration 1000.0 nM
[4] = biological target: Cytoplasmic tyrosine-protein kinase BMX (Homo sapiens) (UniProt P51813); details: Compound concentration 1000.0 nM
Chain of Cytoplasmic tyrosine-protein kinase BMX (Homo sapiens) (P51813 whole entry): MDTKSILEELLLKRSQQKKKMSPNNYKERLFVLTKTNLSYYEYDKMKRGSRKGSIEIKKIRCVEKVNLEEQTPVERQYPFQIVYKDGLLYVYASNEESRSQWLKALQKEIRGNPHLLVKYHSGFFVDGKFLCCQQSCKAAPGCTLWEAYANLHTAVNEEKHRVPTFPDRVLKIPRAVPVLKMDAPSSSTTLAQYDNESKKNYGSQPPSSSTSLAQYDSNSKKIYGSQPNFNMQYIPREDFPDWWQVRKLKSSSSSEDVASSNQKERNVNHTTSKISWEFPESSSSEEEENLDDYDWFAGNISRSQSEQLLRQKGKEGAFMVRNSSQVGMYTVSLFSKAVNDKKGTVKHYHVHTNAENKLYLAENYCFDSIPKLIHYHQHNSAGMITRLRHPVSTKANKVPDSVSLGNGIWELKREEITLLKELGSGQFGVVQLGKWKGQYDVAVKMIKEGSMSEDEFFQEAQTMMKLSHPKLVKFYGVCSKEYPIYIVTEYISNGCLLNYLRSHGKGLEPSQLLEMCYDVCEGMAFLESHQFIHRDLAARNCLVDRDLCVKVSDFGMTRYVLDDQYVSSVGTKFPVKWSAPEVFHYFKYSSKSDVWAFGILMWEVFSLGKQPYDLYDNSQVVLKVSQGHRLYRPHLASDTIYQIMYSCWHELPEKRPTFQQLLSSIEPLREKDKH

[5] = biological target: Serine/threonine-protein kinase BRSK2 (Homo sapiens) (UniProt Q8IWQ3); details: Compound concentration 1000.0 nM
[6] = biological target: Cyclin-dependent kinase-like 1 (Homo sapiens) (UniProt Q00532); details: Compound concentration 1000.0 nM
[7] = biological target: Casein kinase I isoform alpha (Homo sapiens) (UniProt P48729); details: Compound concentration 1000.0 nM
Chain of Casein kinase I isoform alpha (Homo sapiens) (P48729 2-337 limits assumed): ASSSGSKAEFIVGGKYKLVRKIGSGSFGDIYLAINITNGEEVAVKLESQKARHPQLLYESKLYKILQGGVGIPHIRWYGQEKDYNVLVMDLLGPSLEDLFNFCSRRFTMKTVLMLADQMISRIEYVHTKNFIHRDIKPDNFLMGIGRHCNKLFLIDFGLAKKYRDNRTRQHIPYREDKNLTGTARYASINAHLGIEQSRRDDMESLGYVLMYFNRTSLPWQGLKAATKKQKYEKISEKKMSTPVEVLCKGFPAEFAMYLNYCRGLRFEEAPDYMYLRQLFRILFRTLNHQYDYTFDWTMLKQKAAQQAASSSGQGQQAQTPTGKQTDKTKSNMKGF

[8] = biological target: Death-associated protein kinase 1 (Homo sapiens) (UniProt P53355); details: Compound concentration 1000.0 nM
[9] = biological target: Ephrin type-A receptor 3 (Homo sapiens) (UniProt P29320); details: Compound concentration 1000.0 nM
[10] = biological target: Ephrin type-B receptor 1 (Homo sapiens) (UniProt P54762); details: Compound concentration 1000.0 nM
Chain of Ephrin type-B receptor 1 (Homo sapiens) (P54762 whole entry): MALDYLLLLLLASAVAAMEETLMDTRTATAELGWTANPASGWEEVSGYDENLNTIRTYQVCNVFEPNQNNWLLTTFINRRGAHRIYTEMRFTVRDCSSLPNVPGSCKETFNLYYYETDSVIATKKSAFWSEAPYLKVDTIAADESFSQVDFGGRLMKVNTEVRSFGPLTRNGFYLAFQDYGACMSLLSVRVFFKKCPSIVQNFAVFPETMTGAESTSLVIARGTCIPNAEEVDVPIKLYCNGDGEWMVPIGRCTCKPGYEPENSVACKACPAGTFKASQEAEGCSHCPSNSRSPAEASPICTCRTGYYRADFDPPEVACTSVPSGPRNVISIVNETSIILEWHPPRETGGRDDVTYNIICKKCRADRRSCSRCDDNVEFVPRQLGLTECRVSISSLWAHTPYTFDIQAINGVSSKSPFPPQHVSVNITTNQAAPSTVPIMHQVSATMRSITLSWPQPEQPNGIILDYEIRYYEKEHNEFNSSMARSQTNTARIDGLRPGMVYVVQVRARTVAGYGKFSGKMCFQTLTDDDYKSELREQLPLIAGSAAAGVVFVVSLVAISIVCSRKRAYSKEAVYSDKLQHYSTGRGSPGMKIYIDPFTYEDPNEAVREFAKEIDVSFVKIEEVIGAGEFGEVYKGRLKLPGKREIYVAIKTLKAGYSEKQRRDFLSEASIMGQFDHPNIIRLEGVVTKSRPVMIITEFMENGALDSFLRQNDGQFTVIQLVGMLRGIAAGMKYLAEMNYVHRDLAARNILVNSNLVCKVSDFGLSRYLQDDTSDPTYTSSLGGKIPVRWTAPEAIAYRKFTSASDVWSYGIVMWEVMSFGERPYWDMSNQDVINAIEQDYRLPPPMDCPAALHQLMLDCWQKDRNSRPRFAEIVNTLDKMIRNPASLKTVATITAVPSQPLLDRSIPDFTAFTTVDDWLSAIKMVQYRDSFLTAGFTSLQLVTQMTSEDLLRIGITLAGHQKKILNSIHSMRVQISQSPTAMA

[11] = biological target: Mitogen-activated protein kinase 1 (Homo sapiens) (UniProt P28482); details: Compound concentration 1000.0 nM
[12] = tested on: Receptor-type tyrosine-protein kinase FLT3 (Homo sapiens), P36888 [R834Q]; details: Compound concentration 1000.0 nM
[13] = biological target: Homeodomain-interacting protein kinase 1 (Homo sapiens) (UniProt Q86Z02); details: Compound concentration 1000.0 nM
[14] = biological target: Homeodomain-interacting protein kinase 4 (Homo sapiens) (UniProt Q8NE63); details: Compound concentration 1000.0 nM
[15] = biological target: Inhibitor of nuclear factor kappa-B kinase subunit beta (Homo sapiens) (UniProt O14920); details: Compound concentration 1000.0 nM
[16] = biological target: Mitogen-activated protein kinase 10 (Homo sapiens) (UniProt P53779); details: Compound concentration 1000.0 nM
Chain of Mitogen-activated protein kinase 10 (Homo sapiens) (P53779 whole entry): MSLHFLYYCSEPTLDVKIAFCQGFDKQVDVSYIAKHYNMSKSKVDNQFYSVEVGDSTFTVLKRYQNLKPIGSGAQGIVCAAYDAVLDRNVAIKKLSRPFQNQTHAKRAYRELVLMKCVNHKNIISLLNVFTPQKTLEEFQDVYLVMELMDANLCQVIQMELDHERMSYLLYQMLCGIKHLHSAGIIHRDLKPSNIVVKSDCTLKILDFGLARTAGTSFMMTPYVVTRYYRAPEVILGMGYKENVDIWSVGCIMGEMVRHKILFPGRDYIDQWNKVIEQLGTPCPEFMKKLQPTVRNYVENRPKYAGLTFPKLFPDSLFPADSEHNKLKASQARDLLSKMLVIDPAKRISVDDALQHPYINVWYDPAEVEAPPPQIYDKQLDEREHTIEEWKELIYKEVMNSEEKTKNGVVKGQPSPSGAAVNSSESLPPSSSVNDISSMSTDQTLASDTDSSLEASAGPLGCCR

[17] = tested on: Mast/stem cell growth factor receptor Kit (Homo sapiens), P10721 [V559D,V654A]; details: Compound concentration 1000.0 nM
[18] = biological target: Mitogen-activated protein kinase kinase kinase 13 (Homo sapiens) (UniProt O43283); details: Compound concentration 1000.0 nM
[19] = biological target: Serine/threonine-protein kinase Nek4 (Homo sapiens) (UniProt P51957); details: Compound concentration 1000.0 nM
[20] = biological target: Serine/threonine-protein kinase PAK 3 (Homo sapiens) (UniProt O75914); details: Compound concentration 1000.0 nM
[21] = biological target: Cyclin-dependent kinase 17 (Homo sapiens) (UniProt Q00537); details: Compound concentration 1000.0 nM
Chain of Cyclin-dependent kinase 17 (Homo sapiens) (Q00537 whole entry, looked up): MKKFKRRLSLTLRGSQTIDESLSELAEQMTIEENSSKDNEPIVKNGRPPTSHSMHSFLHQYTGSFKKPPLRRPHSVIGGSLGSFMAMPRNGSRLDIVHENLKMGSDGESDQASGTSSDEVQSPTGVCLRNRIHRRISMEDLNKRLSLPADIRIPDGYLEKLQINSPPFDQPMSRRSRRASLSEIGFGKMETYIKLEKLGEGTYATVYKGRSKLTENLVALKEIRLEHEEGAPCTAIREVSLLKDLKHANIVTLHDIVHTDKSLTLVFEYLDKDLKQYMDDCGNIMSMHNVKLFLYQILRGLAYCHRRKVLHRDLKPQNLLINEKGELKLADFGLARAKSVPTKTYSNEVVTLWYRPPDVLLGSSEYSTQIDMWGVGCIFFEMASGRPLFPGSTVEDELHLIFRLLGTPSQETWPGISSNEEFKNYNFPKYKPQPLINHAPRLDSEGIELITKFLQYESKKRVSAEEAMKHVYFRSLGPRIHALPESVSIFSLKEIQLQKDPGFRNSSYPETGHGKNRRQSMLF

[22] = biological target: 3-phosphoinositide-dependent protein kinase 1 (Homo sapiens) (UniProt O15530); details: Compound concentration 1000.0 nM
Chain of 3-phosphoinositide-dependent protein kinase 1 (Homo sapiens) (O15530 whole entry, canonical isoform): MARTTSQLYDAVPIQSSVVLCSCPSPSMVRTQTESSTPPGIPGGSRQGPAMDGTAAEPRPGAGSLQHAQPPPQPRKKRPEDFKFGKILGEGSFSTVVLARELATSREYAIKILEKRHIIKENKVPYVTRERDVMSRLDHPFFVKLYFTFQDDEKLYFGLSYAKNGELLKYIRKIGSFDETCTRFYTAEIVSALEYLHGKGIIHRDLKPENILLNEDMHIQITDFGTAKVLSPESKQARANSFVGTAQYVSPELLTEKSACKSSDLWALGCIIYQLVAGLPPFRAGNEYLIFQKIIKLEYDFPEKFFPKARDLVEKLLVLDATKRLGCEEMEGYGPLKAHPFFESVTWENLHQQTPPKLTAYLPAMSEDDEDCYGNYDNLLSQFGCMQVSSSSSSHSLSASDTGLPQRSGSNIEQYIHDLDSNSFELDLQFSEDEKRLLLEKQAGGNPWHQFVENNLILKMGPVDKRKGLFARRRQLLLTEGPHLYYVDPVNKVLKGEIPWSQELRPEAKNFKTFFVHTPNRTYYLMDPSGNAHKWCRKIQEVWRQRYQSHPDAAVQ

[23] = tested on: Phosphatidylinositol 4,5-bisphosphate 3-kinase catalytic subunit alpha isoform (Homo sapiens), P42336 [Q546K]; details: Compound concentration 1000.0 nM
[24] = biological target: Phosphatidylinositol 4,5-bisphosphate 3-kinase catalytic subunit beta isoform (Homo sapiens) (UniProt P42338); details: Compound concentration 1000.0 nM
[25] = biological target: cGMP-dependent protein kinase 1 (Homo sapiens) (UniProt Q13976); details: Compound concentration 1000.0 nM
Chain of cGMP-dependent protein kinase 1 (Homo sapiens) (Q13976 whole entry): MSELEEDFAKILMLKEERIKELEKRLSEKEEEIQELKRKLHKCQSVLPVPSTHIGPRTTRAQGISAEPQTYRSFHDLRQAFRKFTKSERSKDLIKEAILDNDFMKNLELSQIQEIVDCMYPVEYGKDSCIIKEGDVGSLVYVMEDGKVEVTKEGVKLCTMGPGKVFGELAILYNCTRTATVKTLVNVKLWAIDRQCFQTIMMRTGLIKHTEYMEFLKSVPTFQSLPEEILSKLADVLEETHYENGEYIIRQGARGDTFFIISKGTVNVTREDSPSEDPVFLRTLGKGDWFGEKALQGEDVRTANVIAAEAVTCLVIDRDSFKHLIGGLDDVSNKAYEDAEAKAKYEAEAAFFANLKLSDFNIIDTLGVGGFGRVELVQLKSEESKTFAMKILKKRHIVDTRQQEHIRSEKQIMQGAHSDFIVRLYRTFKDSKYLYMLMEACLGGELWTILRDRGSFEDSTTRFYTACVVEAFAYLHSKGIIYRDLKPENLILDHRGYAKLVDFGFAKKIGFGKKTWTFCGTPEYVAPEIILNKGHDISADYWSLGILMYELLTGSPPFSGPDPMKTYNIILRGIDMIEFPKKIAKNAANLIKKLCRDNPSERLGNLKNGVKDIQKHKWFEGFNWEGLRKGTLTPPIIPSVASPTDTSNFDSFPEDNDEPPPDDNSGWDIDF

[26] = biological target: Uncharacterized serine/threonine-protein kinase SBK3 (Homo sapiens) (UniProt P0C264); details: Compound concentration 1000.0 nM
[27] = biological target: SRSF protein kinase 1 (Homo sapiens) (UniProt Q96SB4); details: Compound concentration 1000.0 nM
[28] = biological target: Serine/threonine-protein kinase 35 (Homo sapiens) (UniProt Q8TDR2); details: Compound concentration 1000.0 nM
Chain of Serine/threonine-protein kinase 35 (Homo sapiens) (Q8TDR2 whole entry): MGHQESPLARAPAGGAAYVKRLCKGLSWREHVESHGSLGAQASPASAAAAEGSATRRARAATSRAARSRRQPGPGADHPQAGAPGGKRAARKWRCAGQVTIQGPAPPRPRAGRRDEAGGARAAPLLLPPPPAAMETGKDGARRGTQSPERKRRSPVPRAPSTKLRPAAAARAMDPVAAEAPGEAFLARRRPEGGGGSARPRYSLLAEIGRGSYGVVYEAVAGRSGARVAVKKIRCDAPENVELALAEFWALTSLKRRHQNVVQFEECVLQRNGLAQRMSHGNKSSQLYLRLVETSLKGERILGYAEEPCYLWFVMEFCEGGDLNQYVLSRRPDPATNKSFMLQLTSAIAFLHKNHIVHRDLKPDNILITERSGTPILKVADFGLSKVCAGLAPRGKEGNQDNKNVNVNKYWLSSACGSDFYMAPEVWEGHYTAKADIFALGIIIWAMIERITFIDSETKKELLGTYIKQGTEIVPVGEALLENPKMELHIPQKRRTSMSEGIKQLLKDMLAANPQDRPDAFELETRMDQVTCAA

[29] = biological target: Serine/threonine-protein kinase ULK3 (Homo sapiens) (UniProt Q6PHR2); details: Compound concentration 1000.0 nM
[30] = biological target: 5-hydroxytryptamine receptor 1E (Homo sapiens) (UniProt P28566); details: Compound concentration 10.0 uM
[31] = biological target: T1, Alpha-2A adrenergic receptor (Homo sapiens) (UniProt P08913); details: Compound concentration 10.0 uM
T1 sequence (whole entry): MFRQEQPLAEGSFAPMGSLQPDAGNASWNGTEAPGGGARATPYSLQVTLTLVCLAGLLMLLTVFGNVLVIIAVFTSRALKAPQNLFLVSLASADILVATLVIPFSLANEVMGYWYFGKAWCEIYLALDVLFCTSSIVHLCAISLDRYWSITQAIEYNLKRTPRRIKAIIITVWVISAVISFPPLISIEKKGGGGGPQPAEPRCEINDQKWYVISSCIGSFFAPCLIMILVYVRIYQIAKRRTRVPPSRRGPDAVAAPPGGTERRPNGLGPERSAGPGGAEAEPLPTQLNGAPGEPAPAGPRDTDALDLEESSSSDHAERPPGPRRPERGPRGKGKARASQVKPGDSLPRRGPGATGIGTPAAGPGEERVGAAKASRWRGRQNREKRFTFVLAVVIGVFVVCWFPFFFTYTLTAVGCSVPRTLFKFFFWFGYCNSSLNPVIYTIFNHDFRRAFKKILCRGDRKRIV

[32] = biological target: T2, Muscarinic acetylcholine receptor M4 (Homo sapiens) (UniProt P08173); details: Compound concentration 10.0 uM
T2 sequence (whole entry): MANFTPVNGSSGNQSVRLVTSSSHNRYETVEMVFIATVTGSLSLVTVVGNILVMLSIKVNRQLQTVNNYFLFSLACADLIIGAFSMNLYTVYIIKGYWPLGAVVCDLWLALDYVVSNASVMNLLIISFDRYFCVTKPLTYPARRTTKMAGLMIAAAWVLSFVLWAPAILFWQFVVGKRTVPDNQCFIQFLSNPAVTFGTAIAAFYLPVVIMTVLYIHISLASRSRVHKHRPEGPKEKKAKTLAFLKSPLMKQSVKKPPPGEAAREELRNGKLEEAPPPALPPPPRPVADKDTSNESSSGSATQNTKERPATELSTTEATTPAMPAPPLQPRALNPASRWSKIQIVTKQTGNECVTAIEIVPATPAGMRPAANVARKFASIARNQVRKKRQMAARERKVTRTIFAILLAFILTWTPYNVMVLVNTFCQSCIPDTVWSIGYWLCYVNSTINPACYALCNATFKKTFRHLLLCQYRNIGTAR

CN(C)CC#Cc1ccc(OCCCc2sc(N3CCc4cccc(C(=O)Nc5nc6ccccc6s5)c4C3)nc2C(=O)O)c(F)c1 [A-1155463]
inactive: residual activity [1] 100% | residual activity [2] 69% | residual activity [3] 92% | residual activity [4] 82% | residual activity [5] 93% | residual activity [6] 100% | residual activity [7] 71% | residual activity [8] 91% | residual activity [9] 91% | residual activity [10] 100% | residual activity [11] 100% | residual activity [12] 100% | residual activity [13] 75% | residual activity [14] 100% | residual activity [15] 72% | residual activity [16] 71% | residual activity [17] 78% | residual activity [18] 96% | residual activity [19] 98% | residual activity [20] 97% | residual activity [21] 99% | residual activity [22] 100% | residual activity [23] 79% | residual activity [24] 100% | residual activity [25] 100% | residual activity [26] 100% | residual activity [27] 100% | residual activity [28] 86% | residual activity [29] 100% | inhibition [30] -4.32% | inhibition [31] 7.32% | inhibition [32] -3.11%

Source: ChEMBL document CHEMBL4507311, “Data for DCP probe A-1155463” (2021)
